We go through 5 compounds from article PMC8145596, “Novel Chemically Modified Curcumin (CMC) Derivatives Inhibit Tyrosinase Activity and Melanin Synthesis in B16F10 Mouse Melanoma Cells” (Biomolecules, 2021).

Experiment [1] in a line: DPPH radical scavenging antioxidant assay. The following applies: 60 μM DPPH, 30 min. Here is the method: Melanin production catalyzed by the tyrosinase pathway is often associated with higher levels of oxidative stress and reactive oxygen species (ROS) generation. […] DPPH (2,2-Diphenyl-1-picrylhydrazyl) is a stable free radical which changes color from purple to yellow upon reduction by antioxidant compounds. Briefly, 180 µL of DPPH reagent that was prepared in methanol was combined with 20 µL of different concentrations of the compounds in a 96-well plate to give a final DPPH concentration of 60 μM in each well. A control group consisted of DPPH only while ascorbic acid (AA) at 20 µM was used as a positive control. The plate was covered and incubated for 30 min, after which the absorbance was read at 517 nm and the DPPH radical scavenging activity was reported as % of control.

For experiment [2], the target named is T1, α-glucosidase enzyme from Baker’s yeast (Saccharomyces cerevisiae, UniProt P53341).
T1 construct: purchased Sigma-Aldrich (St. Louis, MO, USA)
As to the kind of experiment: Cell-free α-glucosidase assay. It is filed as biochemical. Here is the method: The effects of compounds on α-glucosidase were assayed based on the method decribed previously with some modifications. 80 µL of samples (prepared in 0.05 M phosphate buffer, pH 6.8) were aliquoted in a 96-well microplate followed by the addition of 100 µL of 2.4 mM pNG substrate solution. A volume of 20 µL of 0.45 units of α-glucosidase enzyme from Baker’s yeast prepared in 0.05 M buffer was added to start the reaction; the rate of the formation of p-nitrophenol was monitored at 405 nm for 15 min at 37 °C in a microplate reader in kinetic mode. The enzyme activity (%) was calculated as: (rate of sample reaction/rate of control reaction) × 100%.

Experiment [3] deals with tyrosinase activity in B16F10 cells. Description: Intracellular tyrosinase activity in B16F10 cell lysates. The conditions noted are these: 48 h. It is filed as cell-based, mouse. Here is the method:
B16F10 cells (4 × 10^4 cells/well in 1 mL medium) were cultured in 24-well plates for 24 h. After that, the medium was replaced by fresh medium containing the compounds, and further incubated for 48 h. At the end of treatments, the cells were harvested, and cell pellets were washed in PBS and lysed and then centrifuged. Lysates (50 µL) were then aliquoted in a 96-well plate and 150 µL of 3 mM L-DOPA was added. The absorbance was measured at 475 nm every 30 s for 40 min at 30 °C using a microplate reader in the kinetic mode. The tyrosinase activity was calculated from the slope of the linear range of the velocity in the presence of each test compound and normalized to the total protein content and reported as % of control.

Experiment [4] deals with α-glucosidase activity in B16F10 cells. Description: Intracellular α-glucosidase assay. Type of experiment: cell-based, mouse. The following applies: 48 h; for inhibition at 10 µM / inhibition at 20 µM / inhibition at 25 µM / inhibition at 5 µM: Mus musculus, B16-F10, read-out: inhibition of cellular α-glucosidase activity. Here is the method:
B16F10 cells (2.2 × 10^5) were grown in 6-well plates and compounds were added next day for 48 h. Cells were harvested, lysed and 50 µL of lysates were aliquoted in a 96-well plate with 100 µL of 2 mM pNG substrate; rate of the formation of the yellow-colored reaction product, p-nitrophenol, was monitored at 405 nm for 30 min at 37 °C in a microplate reader (kinetic mode) and values were normalized to total protein contents. The cellular α-glucosidase activity was calculated as (rate of sample reaction/rate of control reaction) × 100 and was expressed as percentage of control.

In experiment [5] the test system is tyrosinase activity in B16F10 cells. Description: Recovery study of intracellular tyrosinase activity. It is filed as cell-based, mouse. Here is the method:
In order to establish reversibility of tyrosinase inhibition by the CMCs, we conducted a recovery study for 48 h using the highest concentrations of the compounds that produced maximum inhibition of tyrosinase activity. B16F10 cells were plated in six-well plates at 3.5 × 10^4 cells/well and then compounds were added the next day. Tyrosinase activity was estimated after 48 h exposure in cellular lysates and another set of cultures were continued with fresh medium without the compounds to study the recovery of tyrosinase activity for 48 h. Results are expressed as % tyrosinase activity for both 48 h exposure and 48 h recovery.

For experiment [6], the system named is B16F10 mouse melanoma cells. As to the kind of experiment: Melanin levels in B16F10 cells. It is filed as cell-based. The conditions noted are these: for suppression of melanin levels: 48 h. Here is the method:
B16F10 cells (1 × 10^5 cells/well) were seeded in 12-well plates and cultured for 24 h. The medium was then replaced with compounds at nontoxic concentrations that were selected on the basis of the MTS assay and incubated for another 48 h. After the treatments, the cells were detached using TrypLE (1×), and cell pellets were washed in PBS. Cell pellets were visually observed for lightening of the pigment. After aspiration, 250 μL of 1N NaOH was added and heated to 70 °C to solubilize melanin. The aliquots were then transferred to a 96-well plate and absorbance was read at 475 nm using a microplate reader. The absorbance was normalized to total protein content and was expressed as % of control.

The mark [7] stands for this setting: Mus musculus, B16-F10, 48 h, read-out: loss of tyrosinase activity after 48 h exposure (recovery study).

T1 sequence (P53341 whole entry): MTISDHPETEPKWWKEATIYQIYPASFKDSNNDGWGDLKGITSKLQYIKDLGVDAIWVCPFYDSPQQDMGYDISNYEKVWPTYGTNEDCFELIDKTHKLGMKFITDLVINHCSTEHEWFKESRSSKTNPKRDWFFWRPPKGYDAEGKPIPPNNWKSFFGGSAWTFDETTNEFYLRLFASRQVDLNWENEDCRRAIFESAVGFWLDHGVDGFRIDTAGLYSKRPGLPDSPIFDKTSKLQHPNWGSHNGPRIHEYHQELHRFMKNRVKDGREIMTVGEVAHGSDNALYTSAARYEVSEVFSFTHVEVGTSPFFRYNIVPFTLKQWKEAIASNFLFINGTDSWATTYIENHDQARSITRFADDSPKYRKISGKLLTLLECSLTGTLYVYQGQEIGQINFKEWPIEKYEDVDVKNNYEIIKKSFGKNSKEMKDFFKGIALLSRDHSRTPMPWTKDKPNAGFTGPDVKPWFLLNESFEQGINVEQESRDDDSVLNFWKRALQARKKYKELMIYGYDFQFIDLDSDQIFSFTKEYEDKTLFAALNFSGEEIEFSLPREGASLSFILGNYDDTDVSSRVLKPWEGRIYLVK

Regarding `COC(=O)/C(C(=O)/C=C/c1ccc(O)c(OC)c1)=C(O)\C=C\c1ccc(O)c(OC)c1` [CMC2.5, 4-methoxycarbonyl curcumin], in experiment [1], the “DPPH radical scavenging activity” value is on record as “significant radical scavenging activity”. Also, the inhibition at 20 µM is 14% in experiment [2], 25.6% in experiment [4] and 42.5% in experiment [5] (setting [7]). Moreover, in experiment [2] (concentrations other than 20 µM), the “cell-free α-glucosidase activity” value is “no change was observed at any other concentration”. For the same compound, the “suppression of intracellular tyrosinase activity” value is recorded as 19.98% in experiment [3] (10 µM), 23.16% in experiment [3] (20 µM) and 26% in experiment [3] (25 µM). Moreover, the inhibition at 10 µM in experiment [4] (10 µM) was found to be 12.4%. In experiment [4] (25 µM), the inhibition at 25 µM was determined as 27.4%. The “tyrosinase activity after 48 h recovery in compound-free medium” value in experiment [5] (after exposure to 20 µM) turned out to be 100%. Besides, the “suppression of melanin levels” value is listed as 34.84% in experiment [6] (20 µM) and 31.40% in experiment [6] (25 µM).

In the case of `COc1cc(/C=C/C(=O)/C(C(=O)Nc2ccccc2)=C(O)/C=C/c2ccc(O)c(OC)c2)ccc1O` [CMC2.23], the “DPPH radical scavenging activity” value in experiment [1] was “significant radical scavenging activity”. Besides, the values for the inhibition at 5 µM in experiment [2] (5 µM) and in experiment [4] (5 µM) were 15.5% and 12.4%, respectively. The inhibition at 10 µM in experiment [2] (10 µM) worked out at 16.5%; in experiment [4] (10 µM), 14.9%. For the same compound, the inhibition at 20 µM in experiment [2] was determined as 19.8%; in experiment [4] it was 11.8%; in experiment [5] (setting [7]) it was 52.7%. In experiment [2], this compound returned an inhibition at 25 µM of 17.2%. The “suppression of intracellular tyrosinase activity” value is reported as 30.04% in experiment [3] (10 µM), 44.64% in experiment [3] (20 µM) and 51.47% in experiment [3] (25 µM). For the same compound, the “inhibition of cellular α-glucosidase activity” value in experiment [4] (25 µM) was “no change”. The “suppression of melanin levels” value in experiment [6] (10 µM) worked out at 28.63%; in experiment [6] (20 µM), 33.68%; in experiment [6] (25 µM) it was 37.87%.

As for `O=C(/C=C/c1ccc(O)cc1)/C(C(=O)Nc1ccccc1)=C(O)/C=C/c1ccc(O)cc1` [CMC2.24], the “DPPH radical scavenging activity” value in experiment [1] is “did not demonstrate such activity”. Besides, the inhibition at 5 µM in experiment [2] (5 µM) was determined as 27.1%; in experiment [4] (5 µM), 10.2%. The inhibition at 10 µM in experiment [2] (10 µM) amounted to 25.6%; in experiment [4] (10 µM), 12.6%. The inhibition at 20 µM in experiment [2] came out at 35.3%; in experiment [4] it was 20.3%; in experiment [5] (setting [7]), 73.3%. The values for the inhibition at 25 µM in experiment [2] and in experiment [4] (25 µM) were 41.3% and 16.4%, respectively. Further, the “suppression of intracellular tyrosinase activity” value is recorded as 38.6% in experiment [3] (5 µM), 53.76% in experiment [3] (10 µM), 64.25% in experiment [3] (20 µM) and 68.81% in experiment [3] (25 µM). In addition, the results for the “suppression of melanin levels” value in experiment [6] (10 µM), in experiment [6] (20 µM) and in experiment [6] (25 µM) were 32.54%, 43.53% and 41.07%, respectively. Further, the entries for the “fold higher level of melanin inhibition vs PC” value in experiment [6] (20 µM) and in experiment [6] (25 µM) were 1.5 fold and 2 fold, respectively.

For the compound `COC(=O)/C(C(=O)/C=C/c1ccc(O)cc1)=C(O)\C=C\c1ccc(O)cc1` [CMC2.14], in experiment [1], the “DPPH radical scavenging activity” value is given as “did not demonstrate such activity”. In addition, the inhibition at 10 µM was determined as 14.3% in experiment [2] (10 µM); 16.5% in experiment [4] (10 µM); 74.8% in experiment [5] (Mus musculus, B16-F10, 48 h, 10 µM, read-out: loss of tyrosinase activity after 48 h exposure (recovery study)). The “suppression of intracellular tyrosinase activity” value in experiment [3] (5 µM) was found to be 47.96%; in experiment [3] (10 µM), 50.31%. For the same compound, in experiment [5] (after exposure to 10 µM), the “tyrosinase activity after 48 h recovery in compound-free medium” value came out at 100%. In experiment [6] (10 µM), the “suppression of melanin levels” value is 28.42%.

On to “1,7-bis(4-hydroxy-3-methoxyphenyl)-1,6-heptadien-3,5-dione [PC, reference compound]”, for which the “DPPH radical scavenging activity” value in experiment [1] was “high radical scavenging activity”. Also, the “inhibition of cell-free α-glucosidase activity” value was 20.13% in experiment [2] (5 µM) and 22.13% in experiment [2] (10 µM). For the same compound, in experiment [3] (10 µM), the “suppression of intracellular tyrosinase activity” value was found to be 47.85%. In addition, the “inhibition of cellular α-glucosidase activity” value in experiment [4] (5 µM) is given as 13.71%; in experiment [4] (10 µM) it was 10.47%. The inhibition in experiment [5] (10 µM, read-out: loss of tyrosinase activity after 48 h exposure (recovery study)) came out at 89.5%. Further, in experiment [5] (after exposure to 10 µM), the “tyrosinase activity after 48 h recovery in compound-free medium” value is “did not differ from that of the control group”. In addition, the “suppression of melanin levels” value in experiment [6] (10 µM) stood at 20.92%.
